# Reference: patent US11465975B2, “Certain chemical entities, compositions, and methods” (NeuPharma, Inc., priority 2018, dated 2022)
# Values joined by “and” are separate entries in the source; they are usually repeats but may differ in a detail not shown here. Equal entries are not always repeated.
# What was measured:
# Assay type in all cases: physicochemical
# [1] = Preliminary accelerated stability test of Form I, non-micronized and micronized (HPLC, XRPD, DSC); set-up: RRT 1.09: unit not given here; conditions: for Stability tested by HPLC, XRPD and DSC (degradation and crystal conversion): 40° C./75% RH and 60° C. for 2 weeks; for Assay % / Average Total impurity (%) / Average assay (%) / Peak area % / RRT 1.09 / Total impurity (%): solid, HPLC
# Method: (§1) HPLCs were preformed using the following instrument and/or conditions.
# (§2) Form I (both non-micronized and micronized) was used for the preliminary accelerated stability test. The samples were exposed to different stressed condition (40° C./75% RH and 60° C.) for 2 weeks. Standard controls were placed at −20° C. Samples and corresponding standard controls were pulled out for XRPD, DSC and HPLC analysis at 0 day, 1st week and 2nd week, respectively. The samples placed under condition without humidity were closed tightly with cap. The samples placed under humidity condition were just covered with aluminum foil with pinholes. HPLC steps were performed as described in Example 14.
# [2] = Competitive test of Form I and Form VI (suspension equilibration, XRPD check); conditions: for Check result at 7 days (form of residual solid, XRPD): room temperature; for Check result at 21 days (form of residual solid, XRPD): 14 days RT then 40° C.; for Check result at 14 days (form of residual solid, XRPD): 7 days RT then 40° C.
# Method: X-ray powder diffraction (XRD) patterns were obtained on a Bruker D8 Advance. A CuK source (=1.54056 angstrom) operating minimally at 40 kV and 40 mA scans each sample between 4 and 40 degrees 2-theta. The step size is 0.05° C. and scan speed is 0.5 second per step.
# Two polymorphic forms of the compound of Formula I, Form I and Form VI, were suspended at the ratio of 1:1 in various solvents and equilibrated at room temperature for a period of time. The forms of the residual solid were checked at 7 days. If still a mixed form, continued to equilibrate at room temperature or 40° C. The solvents were EtOAc, iPoAc, Acetone, MEK, EtOH, IPA, IPE, MTBE, Hexane and Heptane.
# XRPD profiles were acquired at the beginning and end of the experiment and compared to XRPD patterns of the known forms.
# [3] = Preliminary accelerated stability test of Form VI (HPLC, XRPD, DSC); conditions: for Assay % / Average assay (%) / Peak area % / Total impurity (%): solid; for Assay % / Average assay (%) / Peak area %: HPLC; for Total impurity (%): peak area normalized method
# Method: as §1
# as §2, with “Form VI of the compound of Formula” for “Form”, “I” for “I (both non-micronized and micronized)”
compound,measurement,setting,value
"C=CC(=O)Nc1cccc(-c2cccc3cnc(Nc4ccc(N5CCN(CCO)CC5)c(F)c4F)nc23)c1 [non-micronized Form I, N-(3-(2-((2,3-difluoro-4-(4-(2-hydroxyethyl)piperazin-1-yl)phenyl)amino)quinazolin-8-yl)phenyl)acrylamide]","Stability tested by HPLC, XRPD and DSC (degradation and crystal conversion)",[1],No significant degradation and crystal conversion were detected
same,Assay %,"[1]; 40° C./75% RH, 7 d",98.28% and 98.59%
same,Average Total impurity (%),"[1]; 40° C./75% RH, 7 d",0.88%
same,Average assay (%),"[1]; 40° C./75% RH, 7 d",98.44%
same,Peak area %,"[1]; 40° C./75% RH, 7 d",99.12%
same,RRT 1.09,"[1]; 40° C./75% RH, 7 d",0.027 and 0.032
same,Total impurity (%),"[1]; 40° C./75% RH, 7 d",0.88%
same,Assay %,"[1]; 40° C./75% RH, 14 d",98.24% and 97.53%
same,Average Total impurity (%),"[1]; 40° C./75% RH, 14 d",0.86%
same,Average assay (%),"[1]; 40° C./75% RH, 14 d",97.88%
same,Peak area %,"[1]; 40° C./75% RH, 14 d",99.14%
same,RRT 1.09,"[1]; 40° C./75% RH, 14 d",0.026 and 0.027
same,Total impurity (%),"[1]; 40° C./75% RH, 14 d",0.86%
same,Assay %,"[1]; 60° C., 7 d",95.99% and 98.78%
same,Average Total impurity (%),"[1]; 60° C., 7 d",0.85%
same,Average assay (%),"[1]; 60° C., 7 d",97.38%
same,Peak area %,"[1]; 60° C., 7 d",99.15%
same,RRT 1.09,"[1]; 60° C., 7 d",0.030 and 0.028
same,Total impurity (%),"[1]; 60° C., 7 d",0.85%
same,Assay %,"[1]; 60° C., 14 d",98.38% and 99.25%
same,Average Total impurity (%),"[1]; 60° C., 14 d",0.85%
same,Average assay (%),"[1]; 60° C., 14 d",98.81%
same,Peak area %,"[1]; 60° C., 14 d",99.17% and 99.14%
same,RRT 1.09,"[1]; 60° C., 14 d",0.028
same,Total impurity (%),"[1]; 60° C., 14 d",0.83% and 0.86%
same,Assay %,[1]; RT,98.98% and 99.18%
same,Average Total impurity (%),[1]; RT,0.84%
same,Average assay (%),[1]; RT,99.08%
same,Peak area %,[1]; RT,99.18% and 99.14%
same,RRT 1.09,[1]; RT,0.027
same,Total impurity (%),[1]; RT,0.82% and 0.86%
"C=CC(=O)Nc1cccc(-c2cccc3cnc(Nc4ccc(N5CCN(CCO)CC5)c(F)c4F)nc23)c1 [Form I and Form VI, N-(3-(2-((2,3-difluoro-4-(4-(2-hydroxyethyl)piperazin-1-yl)phenyl)amino)quinazolin-8-yl)phenyl)acrylamide]","Check result at 7 days (form of residual solid, XRPD)",[2]; 1:1 suspension in EtOH,Form III and Form VI
same,"Check result at 7 days (form of residual solid, XRPD)",[2]; 1:1 suspension in IPA,Form VI
same,"Check result at 7 days (form of residual solid, XRPD)",[2]; 1:1 suspension in MEK,Form I
same,"Check result at 21 days (form of residual solid, XRPD)",[2]; 1:1 suspension in MTBE,Form I
same,"Check result at 7 days (form of residual solid, XRPD)",[2]; 1:1 suspension in acetone,Form I
same,"Check result at 14 days (form of residual solid, XRPD)",[2]; 1:1 suspension in ethyl acetate (EtOAc),Form I
same,"Check result at 21 days (form of residual solid, XRPD)",[2]; 1:1 suspension in heptane,Mixed
same,"Check result at 21 days (form of residual solid, XRPD)",[2]; 1:1 suspension in hexane,Mixed
same,"Check result at 14 days (form of residual solid, XRPD)",[2]; 1:1 suspension in isopropyl acetate (iPoAc),Form I
same,"Check result at 21 days (form of residual solid, XRPD)",[2]; 1:1 suspension in isopropyl ether (IPE),Mixed
"C=CC(=O)Nc1cccc(-c2cccc3cnc(Nc4ccc(N5CCN(CCO)CC5)c(F)c4F)nc23)c1 [Form VI, N-(3-(2-((2,3-difluoro-4-(4-(2-hydroxyethyl)piperazin-1-yl)phenyl)amino)quinazolin-8-yl)phenyl)acrylamide]","Stability tested by HPLC, XRPD and DSC (degradation and crystal conversion)",[3]; 40° C./75% RH and 60° C. for 2 weeks,No significant degradation and crystal conversion were detected
same,Assay %,"[3]; 40° C./75% RH, 7 days",91.50% and 91.85%
same,Average assay (%),"[3]; 40° C./75% RH, 7 days",91.67%
same,Peak area %,"[3]; 40° C./75% RH, 7 days",99.0% and 99.1%
same,Total impurity (%),"[3]; 40° C./75% RH, 7 days",0.98% and 0.95%
same,Assay %,"[3]; 40° C./75% RH, 14 days",92.13% and 91.45%
same,Average assay (%),"[3]; 40° C./75% RH, 14 days",91.79%
same,Peak area %,"[3]; 40° C./75% RH, 14 days",99.0%
same,Total impurity (%),"[3]; 40° C./75% RH, 14 days",0.99% and 0.96%
same,Assay %,"[3]; 60° C., 7 days",91.61% and 93.76%
same,Average assay (%),"[3]; 60° C., 7 days",92.68%
same,Peak area %,"[3]; 60° C., 7 days",98.9% and 99.0%
same,Total impurity (%),"[3]; 60° C., 7 days",1.10% and 1.04%
same,Assay %,"[3]; 60° C., 14 days",91.82% and 91.77%
same,Average assay (%),"[3]; 60° C., 14 days",91.80%
same,Peak area %,"[3]; 60° C., 14 days",99.0% and 99.1%
same,Total impurity (%),"[3]; 60° C., 14 days",1.01% and 0.94%
same,Assay %,[3]; −20° C. (standard control),92.15% and 92.28%
same,Average assay (%),[3]; −20° C. (standard control),92.21%
same,Peak area %,[3]; −20° C. (standard control),99.0%
same,Total impurity (%),[3]; −20° C. (standard control),0.95% and 0.98%
"C=CC(=O)Nc1cccc(-c2cccc3cnc(Nc4ccc(N5CCN(CCO)CC5)c(F)c4F)nc23)c1 [micronized Form I, N-(3-(2-((2,3-difluoro-4-(4-(2-hydroxyethyl)piperazin-1-yl)phenyl)amino)quinazolin-8-yl)phenyl)acrylamide]","Stability tested by HPLC, XRPD and DSC (degradation and crystal conversion)",[1],No significant degradation and crystal conversion were detected
same,Assay %,"[1]; 40° C./75% RH, 7 d",97.67% and 97.30%
same,Average Total impurity (%),"[1]; 40° C./75% RH, 7 d",0.86%
same,Average assay (%),"[1]; 40° C./75% RH, 7 d",97.48%
same,Peak area %,"[1]; 40° C./75% RH, 7 d",99.14%
same,RRT 1.09,"[1]; 40° C./75% RH, 7 d",0.029 and 0.024
same,Total impurity (%),"[1]; 40° C./75% RH, 7 d",0.86%
same,Assay %,"[1]; 40° C./75% RH, 14 d",96.20% and 98.00%
same,Average Total impurity (%),"[1]; 40° C./75% RH, 14 d",0.88%
same,Average assay (%),"[1]; 40° C./75% RH, 14 d",97.10%
same,Peak area %,"[1]; 40° C./75% RH, 14 d",99.11% and 99.12%
same,RRT 1.09,"[1]; 40° C./75% RH, 14 d",0.028
same,Total impurity (%),"[1]; 40° C./75% RH, 14 d",0.89% and 0.88%
same,Assay %,"[1]; 60° C., 7 d",98.46% and 97.35%
same,Average Total impurity (%),"[1]; 60° C., 7 d",0.85%
same,Average assay (%),"[1]; 60° C., 7 d",97.90%
same,Peak area %,"[1]; 60° C., 7 d",99.15%
same,RRT 1.09,"[1]; 60° C., 7 d",0.022 and 0.028
same,Total impurity (%),"[1]; 60° C., 7 d",0.85%
same,Assay %,"[1]; 60° C., 14 d",98.52% and 98.23%
same,Average Total impurity (%),"[1]; 60° C., 14 d",0.87%
same,Average assay (%),"[1]; 60° C., 14 d",98.37%
same,Peak area %,"[1]; 60° C., 14 d",99.12% and 99.13%
same,RRT 1.09,"[1]; 60° C., 14 d",0.027 and 0.028
same,Total impurity (%),"[1]; 60° C., 14 d",0.88% and 0.87%
same,Assay %,[1]; RT,98.74% and 98.36%
same,Average Total impurity (%),[1]; RT,0.84%
same,Average assay (%),[1]; RT,98.55%
same,Peak area %,[1]; RT,99.14% and 99.18%
same,RRT 1.09,[1]; RT,0.029 and 0.024
same,Total impurity (%),[1]; RT,0.86% and 0.82%
